For experiment [1], the target named is CDK2 (human) (UniProt P24941). Briefly: Enzyme Assay.
For experiment [2], the target named is PIK3CB (Human) (UniProt P42338). Briefly: Cell-Based Assay.
A further experiment deals with MAPK14 (UniProt Q16539). Briefly: Enzyme Assay.
In experiment [3] the target is PIK3CD (Human) (UniProt O00329). The experiment can be described thus: Inhibition of PIK3CD Kinase Activity.
The target in experiment [4] is PIK3CB (Human) (UniProt P42338). The experiment can be described thus: Inhibition of PIK3CB Kinase Activity.
Experiment [5] concerns the target PIK3CA (human) (UniProt P42336). The experiment can be described thus: Inhibition of PIK3CA Kinase Activity.
Experiment [6] concerns the target PIK3CG (human) (UniProt P48736). The experiment can be described thus: Inhibition of PIK3CG Kinase Activity.
The target is the same in experiment [7]. The experiment can be described thus: Enzyme Assay.
For experiment [8], the target named is PIK3CB (Human) (UniProt P42338). The experiment can be described thus: Enzyme Assay.
The target of experiment [9] is PIK3CD (Human) (UniProt O00329). The experiment can be described thus: Enzyme Assay.
In experiment [10] the target is PIK3CA (human) (UniProt P42336). Briefly: Enzyme Assay.
For experiment [11], the target named is CDK2 (human) (UniProt P24941). The experiment can be described thus: Enzyme Assay. The source holds these as a separate data set.

Where “and” joins values, the source holds several entries; their conditions need not be identical. Equal entries are not always repeated.

Sequence of MAPK14 (Q16539 whole entry, looked up): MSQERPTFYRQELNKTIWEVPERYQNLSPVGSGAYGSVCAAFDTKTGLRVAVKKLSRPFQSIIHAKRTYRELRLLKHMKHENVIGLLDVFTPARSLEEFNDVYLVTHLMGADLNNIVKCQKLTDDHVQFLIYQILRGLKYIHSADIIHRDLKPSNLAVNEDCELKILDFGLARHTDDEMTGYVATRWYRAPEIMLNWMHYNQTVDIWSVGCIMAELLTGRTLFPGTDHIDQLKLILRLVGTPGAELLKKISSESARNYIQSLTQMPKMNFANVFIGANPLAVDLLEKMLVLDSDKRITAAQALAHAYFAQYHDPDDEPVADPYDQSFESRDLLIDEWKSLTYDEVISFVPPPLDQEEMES
Sequence of PIK3CG (human) (P48736 whole entry, looked up): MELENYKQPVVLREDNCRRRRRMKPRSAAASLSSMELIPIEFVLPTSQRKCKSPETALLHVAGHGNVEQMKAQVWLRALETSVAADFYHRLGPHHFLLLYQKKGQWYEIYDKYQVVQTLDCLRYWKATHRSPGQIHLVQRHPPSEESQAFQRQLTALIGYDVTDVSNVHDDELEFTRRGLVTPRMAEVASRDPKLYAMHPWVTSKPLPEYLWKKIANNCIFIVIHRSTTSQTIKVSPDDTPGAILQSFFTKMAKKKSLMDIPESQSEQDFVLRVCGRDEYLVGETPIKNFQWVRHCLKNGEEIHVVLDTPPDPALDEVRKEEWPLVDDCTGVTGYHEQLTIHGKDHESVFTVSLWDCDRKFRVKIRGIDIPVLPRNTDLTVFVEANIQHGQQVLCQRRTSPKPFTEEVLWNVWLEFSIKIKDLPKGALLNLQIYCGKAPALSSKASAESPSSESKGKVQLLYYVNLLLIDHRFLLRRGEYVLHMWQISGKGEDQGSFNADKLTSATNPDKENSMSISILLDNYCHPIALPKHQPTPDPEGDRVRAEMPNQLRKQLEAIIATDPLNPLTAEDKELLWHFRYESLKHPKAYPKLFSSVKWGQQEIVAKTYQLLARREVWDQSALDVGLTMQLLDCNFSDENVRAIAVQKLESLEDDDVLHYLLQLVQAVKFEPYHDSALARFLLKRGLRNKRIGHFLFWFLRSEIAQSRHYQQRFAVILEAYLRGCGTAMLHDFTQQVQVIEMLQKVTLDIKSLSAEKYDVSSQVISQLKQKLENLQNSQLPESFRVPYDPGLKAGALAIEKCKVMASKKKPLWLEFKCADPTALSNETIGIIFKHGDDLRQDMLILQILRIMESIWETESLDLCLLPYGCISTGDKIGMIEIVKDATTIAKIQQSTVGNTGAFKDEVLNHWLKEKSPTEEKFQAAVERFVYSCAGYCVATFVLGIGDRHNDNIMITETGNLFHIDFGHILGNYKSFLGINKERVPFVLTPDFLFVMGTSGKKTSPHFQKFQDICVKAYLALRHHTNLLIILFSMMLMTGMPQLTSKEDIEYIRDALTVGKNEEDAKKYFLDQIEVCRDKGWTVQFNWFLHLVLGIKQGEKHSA
Sequence of PIK3CD (Human) (O00329 whole entry, looked up): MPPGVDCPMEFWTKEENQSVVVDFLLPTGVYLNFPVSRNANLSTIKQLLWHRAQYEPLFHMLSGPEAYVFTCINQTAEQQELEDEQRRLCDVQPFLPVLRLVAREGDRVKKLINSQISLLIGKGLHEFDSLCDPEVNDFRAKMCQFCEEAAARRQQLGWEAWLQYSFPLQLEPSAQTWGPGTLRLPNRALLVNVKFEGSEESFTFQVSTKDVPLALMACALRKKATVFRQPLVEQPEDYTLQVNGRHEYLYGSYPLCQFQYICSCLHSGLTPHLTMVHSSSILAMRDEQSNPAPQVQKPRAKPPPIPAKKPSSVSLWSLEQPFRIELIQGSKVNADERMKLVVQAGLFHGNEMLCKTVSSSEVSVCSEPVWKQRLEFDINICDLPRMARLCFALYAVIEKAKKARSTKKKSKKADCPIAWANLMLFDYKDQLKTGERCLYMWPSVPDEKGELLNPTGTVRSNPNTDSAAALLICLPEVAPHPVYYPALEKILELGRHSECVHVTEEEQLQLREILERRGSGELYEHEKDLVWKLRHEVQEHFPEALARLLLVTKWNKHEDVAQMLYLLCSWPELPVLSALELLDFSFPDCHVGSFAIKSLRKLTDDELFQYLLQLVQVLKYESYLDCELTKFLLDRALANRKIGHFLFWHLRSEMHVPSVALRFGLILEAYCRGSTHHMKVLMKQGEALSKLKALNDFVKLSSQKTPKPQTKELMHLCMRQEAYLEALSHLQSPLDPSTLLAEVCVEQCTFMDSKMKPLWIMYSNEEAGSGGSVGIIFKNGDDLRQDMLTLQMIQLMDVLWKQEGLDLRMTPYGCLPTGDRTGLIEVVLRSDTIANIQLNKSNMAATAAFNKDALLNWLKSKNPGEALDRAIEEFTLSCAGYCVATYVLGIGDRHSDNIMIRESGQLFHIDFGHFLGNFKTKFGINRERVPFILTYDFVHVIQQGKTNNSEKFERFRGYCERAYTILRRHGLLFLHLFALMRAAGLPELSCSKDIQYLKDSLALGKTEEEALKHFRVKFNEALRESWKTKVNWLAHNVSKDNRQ
Sequence of PIK3CB (Human) (P42338 whole entry, looked up): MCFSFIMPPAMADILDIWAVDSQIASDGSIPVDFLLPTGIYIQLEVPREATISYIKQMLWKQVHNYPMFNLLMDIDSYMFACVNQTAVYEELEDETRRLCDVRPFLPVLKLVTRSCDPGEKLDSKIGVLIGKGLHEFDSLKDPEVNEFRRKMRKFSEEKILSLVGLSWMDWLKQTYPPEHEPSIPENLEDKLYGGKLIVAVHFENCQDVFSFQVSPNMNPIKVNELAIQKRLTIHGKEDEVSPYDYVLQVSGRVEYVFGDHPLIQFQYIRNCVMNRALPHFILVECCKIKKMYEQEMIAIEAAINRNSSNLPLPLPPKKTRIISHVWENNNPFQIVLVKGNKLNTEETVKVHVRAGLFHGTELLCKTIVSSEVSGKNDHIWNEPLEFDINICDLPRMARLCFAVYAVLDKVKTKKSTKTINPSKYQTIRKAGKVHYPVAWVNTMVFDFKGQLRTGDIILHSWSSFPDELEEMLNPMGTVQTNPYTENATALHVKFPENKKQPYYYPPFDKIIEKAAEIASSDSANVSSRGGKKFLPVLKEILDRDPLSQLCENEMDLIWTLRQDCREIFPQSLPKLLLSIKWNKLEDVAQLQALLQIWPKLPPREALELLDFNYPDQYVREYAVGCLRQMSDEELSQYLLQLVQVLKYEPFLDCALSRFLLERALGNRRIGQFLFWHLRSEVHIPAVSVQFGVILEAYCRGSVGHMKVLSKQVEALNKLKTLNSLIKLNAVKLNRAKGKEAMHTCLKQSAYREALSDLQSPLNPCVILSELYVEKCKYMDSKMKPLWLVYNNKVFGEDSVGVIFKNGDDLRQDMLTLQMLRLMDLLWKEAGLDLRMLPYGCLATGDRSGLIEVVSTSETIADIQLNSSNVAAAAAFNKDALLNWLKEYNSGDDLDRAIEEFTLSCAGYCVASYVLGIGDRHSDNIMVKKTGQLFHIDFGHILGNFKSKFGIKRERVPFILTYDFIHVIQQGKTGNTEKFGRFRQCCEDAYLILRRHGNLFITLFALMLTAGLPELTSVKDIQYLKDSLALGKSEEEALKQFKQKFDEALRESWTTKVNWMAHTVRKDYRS
Sequence of PIK3CA (human) (P42336 whole entry, looked up): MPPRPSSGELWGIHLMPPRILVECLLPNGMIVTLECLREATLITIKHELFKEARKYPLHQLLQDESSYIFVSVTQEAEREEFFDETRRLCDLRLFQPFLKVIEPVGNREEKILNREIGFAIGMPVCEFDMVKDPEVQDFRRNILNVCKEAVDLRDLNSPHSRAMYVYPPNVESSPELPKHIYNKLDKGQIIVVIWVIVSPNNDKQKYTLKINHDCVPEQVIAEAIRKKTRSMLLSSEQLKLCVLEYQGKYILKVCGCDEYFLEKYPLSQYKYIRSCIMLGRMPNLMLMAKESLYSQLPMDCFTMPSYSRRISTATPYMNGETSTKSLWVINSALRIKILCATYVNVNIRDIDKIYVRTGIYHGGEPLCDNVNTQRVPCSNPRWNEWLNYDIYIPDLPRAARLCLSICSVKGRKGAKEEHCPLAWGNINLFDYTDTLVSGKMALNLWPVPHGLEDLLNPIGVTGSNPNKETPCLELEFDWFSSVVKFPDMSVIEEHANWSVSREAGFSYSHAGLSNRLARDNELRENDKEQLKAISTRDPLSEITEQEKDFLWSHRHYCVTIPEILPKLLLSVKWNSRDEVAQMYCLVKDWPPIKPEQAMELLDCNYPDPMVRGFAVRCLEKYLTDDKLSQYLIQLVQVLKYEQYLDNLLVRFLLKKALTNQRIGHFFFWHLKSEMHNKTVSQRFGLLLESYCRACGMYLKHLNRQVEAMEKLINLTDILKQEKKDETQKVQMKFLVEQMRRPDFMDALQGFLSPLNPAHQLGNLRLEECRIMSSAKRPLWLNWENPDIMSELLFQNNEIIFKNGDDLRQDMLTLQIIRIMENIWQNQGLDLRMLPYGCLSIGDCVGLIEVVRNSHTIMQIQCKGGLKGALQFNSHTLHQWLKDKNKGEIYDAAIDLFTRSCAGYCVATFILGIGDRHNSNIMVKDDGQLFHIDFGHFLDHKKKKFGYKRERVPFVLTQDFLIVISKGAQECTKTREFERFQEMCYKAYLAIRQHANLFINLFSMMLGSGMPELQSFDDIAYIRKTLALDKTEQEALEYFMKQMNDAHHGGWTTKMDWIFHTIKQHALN

Regarding `CC[C@H](Nc1nc(NCc2cccc(Cl)c2)c2ncn(C(C)C)c2n1)[C@@H](C)O`, at CDK2 (human) [1], the 50% inhibitory concentration (IC50) (commonly the midpoint of a concentration-inhibition curve) was 100 nM.
Regarding `C[C@H](Nc1ncnc(N)c1C#N)c1cc2cccc(F)c2nc1-c1ccccc1S(C)(=O)=O`, the half-maximal inhibitory concentration (IC50) on PIK3CB (Human) [2] (mda-468) turned out to be 5970 nM.
On the same count and under the same terms, for `C[C@H](Nc1ncnc(N)c1C#N)c1cc2ccc(F)cc2nc1-c1ccccc1S(C)(=O)=O` the value was above 10000 nM.
For `Nc1ccccc1Nc1ccc2c(c1)OCc1ccccc1C2=O`, at MAPK14, the IC50 was determined as 303 nM. This lies in the sub-micromolar range.
With `CC1(C)CNC(=O)c2sc(N3CCOC[C@@H]3Cc3c[nH]c4ncccc34)nc2C1`, the IC50 at PIK3CD (Human) [3] amounted to 18 nM; against PIK3CB (Human) [4], 1010 nM; against PIK3CA (human) [5] it was 59 nM; against PIK3CG (human) [6], 31 nM.
For `C[C@H](Nc1ncnc2ccc(Cl)nc12)c1nc2c(F)ccc(Cl)c2c(=O)n1N1CCNCC1`, the IC50 on PIK3CG (human) [7] amounted to 3100 nM; at PIK3CB (Human) [8], 8 nM; at PIK3CD (Human) [9], 3 nM.
With `C[C@H](Nc1ncnc(N)c1C#N)c1nc2cccc(C#N)c2nc1-c1ccccc1S(C)(=O)=O`, at PIK3CB (Human) [2] (mda-468), the IC50 is above 10000 nM.
Take `O=C(c1nn([C@@H]2CCCN(CCN3CCOCC3)C2)c2c1CS(=O)(=O)c1c(F)cccc1-2)N1CCOCC1`: the results for the IC50 at PIK3CB (Human) [8], on PIK3CA (human) [10] and against PIK3CD (Human) [9] were 2450 nM, 7650 nM and 15 nM, respectively.
Regarding `C[C@H](Nc1ncnc(N)c1C#N)c1cc2ccc(F)cc2nc1-c1ccccn1`, the IC50 at PIK3CB (Human) [2] (mda-468) came out at 1950 nM. This counts as single-digit micromolar.
At CDK2 (human) [1], `CCC(Nc1nc(NCc2ccc(C(F)(F)F)nc2)c2ncn(C(C)C)c2n1)C(O)C(F)(F)F` (configuration not stated) registered an IC50 of 368 nM.
Turning to `C[C@@H](Oc1ccccc1)c1cc(C(=O)N(C)CCO)cn2c(=O)cc(N3CCOCC3)nc12`, the IC50 against PIK3CB (Human) [8] was 100 nM; against PIK3CA (human) [10], 3500 nM.
For the compound `C[C@H](Nc1ncnc(N)c1C#N)c1nc2cccc(Cl)c2nc1-c1ccccc1S(C)(=O)=O`, the IC50 against PIK3CB (Human) [2] (mda-468) and at PIK3CB (Human) [2] (mda-mb-468) was above 10000 nM throughout.
`CCN(CC)c1ncc2c(n1)-c1sc(NC(=O)N3CCC[C@@]3(Cc3ccccc3)C(N)=O)nc1CC2`: the IC50 on PIK3CD (Human) [3] was 740 nM; at PIK3CB (Human) [4] it was 127 nM; against PIK3CA (human) [5] it was 45 nM; at PIK3CG (human) [6], 1590 nM.
On to `C[C@H](Nc1ncnc(N)c1C#N)c1nc2ccc(F)cc2nc1-c1ccccn1`, for which the IC50 on PIK3CB (Human) [2] (mda-468) is above 10000 nM.
Turning to `Cc1ccc(-n2nc(C(C)(C)C)cc2NC(=O)Nc2cc(C)c(OCCN3CCOCC3)c3ccccc23)cc1`, the Kd (as a rule, the concentration at which binding is half-saturated) on MAPK14 was 14 nM.
As to `CC[C@H](Nc1nc(NCc2cccnc2)c2ncn(C(C)C)c2n1)C(C)(C)O`, the values for the IC50 at CDK2 (human) [11] and at CDK2 (human) [1] were 70 nM and 200 nM, respectively.
Consider `CC(C)n1cnc2c(NCc3cccnc3)nc(NCC(O)(C(F)(F)F)C(F)(F)F)nc21`, for which the half-inhibitory concentration (IC50) at CDK2 (human) [1] was 949 nM.
As to `CC[C@H](Nc1nc(NCc2ccc(C)nc2)c2ncn(C(C)C)c2n1)[C@@H](C)O`, the IC50 on CDK2 (human) [1] came out at 3250 nM.
Regarding `Cc1nc2cnc3ccc(C#Cc4cccnc4)cc3c2n1-c1ccc(C(C)(C)C#N)cc1`, the IC50 was found to be 112 nM at PIK3CG (human) [7]; 34 nM against PIK3CD (Human) [9]; 35 nM on PIK3CD (Human) [3]; 446 nM at PIK3CB (Human) [4]; 56 nM against PIK3CA (human) [5]; 117 nM on PIK3CG (human) [6].
`CC[C@H](Nc1nc(NCc2cccc(F)c2)c2ncn(C(C)C)c2n1)[C@@H](C)O` registered an IC50 at CDK2 (human) [1] of 120 nM.
Consider `Cc1nc(N)nc2c1cc(-c1ccc(N)nc1)c(=O)n2[C@@H]1CCOC1`, for which the IC50 on PIK3CB (Human) [4] was 34 nM; against PIK3CA (human) [5], below 9.1 nM.
With `C[C@H](Nc1ncnc(N)c1C#N)c1cc2ccc(F)cc2nc1-c1cccc(F)c1`, the IC50 at PIK3CB (Human) [2] (mda-468) turned out to be 3800 nM.
Consider `C=CCN(/C=C1/C(=O)O[C@H](COC)[C@@]2(C)C1=C(O)C(=O)C1=C2[C@H](OC(C)=O)C[C@]2(C)C(O)CC[C@H]12)CC=C` (some centres not stated), for which the half-inhibitory concentration (IC50) was found to be 131 nM against PIK3CD (Human) [3], 57 nM at PIK3CB (Human) [4], 14 nM on PIK3CA (human) [5] and 148 nM against PIK3CG (human) [6].
As for `C=CCN(/C=C1/C(=O)O[C@H](COC)[C@@]2(C)C1=C(O)C(=O)C1=C2[C@H](OC(C)=O)C[C@]2(C)C(=O)CC[C@H]12)CC=C`, the IC50 was determined as 124 nM against PIK3CD (Human) [3], 88 nM against PIK3CB (Human) [4], 39 nM against PIK3CA (human) [5] and 198 nM against PIK3CG (human) [6].
For the compound `CCN1CCN(c2cccc3c2CCN3C(=O)Cc2nc(N3CCOCC3)cc(=O)[nH]2)CC1`, the IC50 against PIK3CG (human) [7] was 10000 nM; at PIK3CB (Human) [8], 332 nM; against PIK3CA (human) [10], 660 nM; on PIK3CD (Human) [9], 2 nM.
`Cc1cccc(C(=O)c2ccc(Nc3ccc(N)cc3)cc2Cl)c1` registered an IC50 on MAPK14 of 190 nM.
`CC[C@H](Nc1nc(NCc2cnc(C)cc2C)c2ncn(C(C)C)c2n1)[C@@H](C)O`: at CDK2 (human) [1], the IC50 was 90 nM and 40 nM.
Take `Fc1ccc(-c2ncn(CCCN3CCOCC3)c2-c2ccccn2)cc1`: the IC50 against MAPK14 is 64600 nM.
With `CC(C)S(=O)(=O)n1c(N)nc2ccc(-c3[nH]c(-c4c(F)cccc4F)nc3-c3ccccc3)cc21`, at MAPK14, the Ki (usually the equilibrium dissociation constant of an inhibitor or competing ligand from its target) is 5 nM.

The values are drawn from the Kinase Knowledgebase extract (Sharma et al. 2016).
